Data set [1] is classed as physicochemical. The procedure: Coating solvent was prepared by blending in a vessel a measured volume of a liquid carrier (tetrafluoropropanol) and as a surface tension-reducing agent 1,1,1,3,3-pentafluoropropane (HFC245fa) to give a solvent having the constituent volumetric ratios shown in Table I, below.
Solubility was determined by adding dye powder slowly to a weighed 100 ml aliquot of the coating solvent in a vessel. The solvent was stirred to dissolve the dye. When no more dye would dissolve, the dye addition was stopped and the solvent reweighed to determine the amount of dye that had been dissolved in the solvent.

A short description of data set [2]: Surface tension measurement, Nouy ring method. The format is physicochemical. The following applies: 20 ml aliquot, Kruss Model K 10 ST; liquid carrier tetrafluoropropanol, no coating moiety. The procedure:
Samples of coating solution (Examples 8, 9, 10, and 11) were prepared by blending in a vessel a measured volume of a liquid carrier (tetrafluoropropanol) and a fluorocarbon surface tension-reducing agent (1,1,1,3,3-pentafluoropropane, HFC245fa) to give the Vol. % compositions indicated in Table 3, below.
Surface tension was measured using the Nouy ring method and a Kruss Instrument Model K 10 ST.
In a typical determination, a 20 ml aliquot of the liquid to be tested was placed in the instrument and the surface tension was measured by the published procedure described above. Measurements were carried out for neat tetrafluropropanol (a liquid carrier, Table 3, Comparative Example #3), neat 1,1,1,3,3-pentafluropropane (HFC245fa, as a fluorocarbon surface tension-reducing agent, Table 3, Example # 11), and coating solution formulations (sans a coating moiety) comprising mixtures of tetrafluropropanol with 25 Vol. %, 50 Vol. %, and 75 Vol. % 1,1,1,3,3-pentafluropropane (Table 3, Examples 8, 9 and 10 respectively).

As for Tetrafluoropropanol [compound 1], in data set [1], the “Dye A Solubility” value is reported as 10.7 g/100 ml and the “Dye B Solubility” value stood at 11.3 g/100 ml.

With `FC(F)CC(F)(F)F` [Example # 11, 1,1,1,3,3-pentafluropropane], the Surface Tension in data set [2] came to 18 mN/m.

The values are drawn from US20040063843A1, “Coating solutions” (Honeywell International, Inc., priority 2002, published 2004).
